In ChEMBL document CHEMBL1201862, “PubChem BioAssay data set” (2004):
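Dose response: 5 concentrations. Exposure: 48 h. Format: 96-well plates. Endpoint: linear interpolation; highest concentration if not reached. The concentration for 50% growth inhibition is given as GI50.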 Activity calls are given as the source filed them. Cut-off read from the data, not from the text of the source: active = GI50 up to about 1.1 µM and inactive = higher.

Legend:
Assay in all cases: NCI anticancer screen, dose series, 48 h
NCI/ADR-RES = tested on: NCI/ADR-RES
PC-3 = tested on: PC-3
HOP-62 = tested on: HOP-62
ACHN = tested on: ACHN
COLO 205 = tested on: COLO 205
U-251 = tested on: U-251
HCC 2998 = tested on: HCC 2998
MDA-N = tested on: MDA-N
OVCAR-3 = tested on: OVCAR-3
SNB-75 = tested on: SNB-75
T47D = tested on: T47D
IGROV-1 = tested on: IGROV-1
M14 = tested on: M14
SK-MEL-2 = tested on: SK-MEL-2
CAKI-1 = tested on: CAKI-1
CCRF-CEM = tested on: CCRF-CEM
UO-31 = tested on: UO-31
SF-268 = tested on: SF-268
HCT-116 = tested on: HCT-116
DU-145 = tested on: DU-145

How did the GI50 (NCI/ADR-RES) turn out when CC(=O)OCC1C(=O)OCC1C(=O)N1Cc2cc3ccccc3nc2C1 (stereo not given) was run?
Its GI50 is 0.69 µM (active).

What about the GI50 (PC-3) of the same molecule?
Its GI50 is 7.45 µM (inactive).

And the GI50 (HOP-62)?
The GI50 was 16.6 µM (inactive).

What about the GI50 (ACHN) of the same molecule?
The GI50 was 1.36 µM (inactive).

And the GI50 (COLO 205)?
Its GI50 is 0.653 µM (active).

What about the GI50 (U-251) of the same molecule?
Its GI50 is 11.3 µM (inactive).

And the GI50 (HCC 2998)?
The GI50 was 10.4 µM (inactive).

And the GI50 (MDA-N)?
Its GI50 is 2.75 µM (inactive).

What about the GI50 (OVCAR-3) of the same molecule?
The GI50 was 1.57 µM (inactive).

And the GI50 (SNB-75)?
The GI50 was 4.58 µM (inactive).

And the GI50 (T47D)?
The GI50 was 1.15 µM (inactive).

What about the GI50 (IGROV-1) of the same molecule?
Its GI50 is 10.1 µM (inactive).

And the GI50 (M14)?
The GI50 was 1.56 µM (inactive).

What about the GI50 (SK-MEL-2) of the same molecule?
The GI50 was 8.15 µM (inactive).

And the GI50 (CAKI-1)?
The GI50 was 0.955 µM (active).

And the GI50 (CCRF-CEM)?
Its GI50 is 0.488 µM (active).

And the GI50 (UO-31)?
Its GI50 is 3.95 µM (inactive).

What about the GI50 (SF-268) of the same molecule?
Its GI50 is 7.41 µM (inactive).

And the GI50 (HCT-116)?
The GI50 was 1.27 µM (inactive).

And the GI50 (DU-145)?
Its GI50 is 4.5 µM (inactive).
